Experimental data published in patent publication US20230242496A1, “SOX11 INHIBITORS FOR TREATING MANTLE CELL LYMPHOMA” (Icahn School of Medicine At Mount Sinai, priority 2020, published 2023).

molecular target: T1, (His)6-SOX11-DBD protein (Homo sapiens, UniProt P35716); assay: Surface Plasmon Resonance (SPR) assay; type: binding; details: immobilized recombinant (His)6-SOX11-DBD, 25° C., compounds 5-40 μM, mean of three experiments
T1 construct: Recombinant (His)6-SOX11-DBD protein was immobilized
T1 sequence (P35716 49-117 limits assumed): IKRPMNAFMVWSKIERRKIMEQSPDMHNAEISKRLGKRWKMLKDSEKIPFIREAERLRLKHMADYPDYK
Protocol: Surface Plasmon Resonance (SPR) Assay
Recombinant (His)6-SOX11-DBD protein was immobilized at a flow rate of 10 μl/min for 180 seconds to the right channel of a gold-coated SCR NiHC200M sensor chip (XanTec bioanalytics) placed in a Reichert 2SPR instrument (Reichert Technologies). The left channel, without immobilized protein, was used as a reference. […] Compounds flowed sequentially from the left to the right channel over the prepared sensor chip surface. 120 seconds association phase with each compound concentration was followed by 300 seconds dissociation phase with the assay buffer alone. The ka, kd, and KD values were determined from the sensograms for at least 3 concentrations of each compound by curve fitting the data using Reichert's TraceDrawer software. The mean KD value for each compound was calculated from three separate experiments.

Structure (SMILES) | Kd [µM]
CC(C)N1C(=O)CSc2ccc(C(=O)Nc3ccc(S(=O)(=O)N4CCCCC4)cc3)cc21 | 6.37
CCN(c1ccccc1)S(=O)(=O)c1ccc(NC(=O)c2ccc3c(c2)CCCS3)cc1 | 130
O=C1COc2ccc(C(=O)Nc3ccc(CNc4ccccc4)cc3)cc2N1 | 5.28
CN(c1ccc(Cl)cc1)S(=O)(=O)c1ccc(NC(=O)c2ccc3c(c2)CCCS3)cc1 | 10.8
CN(c1ccccc1Cl)S(=O)(=O)c1ccc(NC(=O)c2ccc3c(c2)CCCS3)cc1 | 2.39
CN(Cc1cccc(NC(=O)c2ccc3c(c2)CCCS3)c1)c1ccccc1 | 37.5
CN(Cc1ccccc1)c1ccc(CNc2ccc3cncnc3c2)cc1 | 20.7
Cc1cccc(COc2ccc(CNc3ccc4cncnc4c3)cc2)c1 | 7.63
c1ccc(OCc2ccc(CNc3ccc4cncnc4c3)cc2)cc1 | 12
CN1C(=O)COc2ccc(C(=O)Nc3ccc(S(=O)(=O)N4CCCCCC4)cc3)cc21 | 4.94
CN(c1ccccc1)S(=O)(=O)c1ccc(NC(=O)c2ccc(/C=C/C(=O)O)cc2)cc1 | 106
c1ncc2ccc(NCc3ccc(OCC4CCOCC4)cc3)cc2n1 | 24.4
CN(c1ccccc1)S(=O)(=O)c1ccc(NC(=O)c2ccc3c(c2)CCCS3)cc1Cl | 10.2
CN(c1ccccc1)S(=O)(=O)c1ccc(NC(=O)c2ccc(SCC(=O)O)cc2)cc1 | 11
CN(c1ccccc1)S(=O)(=O)c1ccc(NC(=O)c2ccc3c(c2)CCCS3)cc1C(F)(F)F | 5.62
O=C1CSc2ccc(C(=O)Nc3ccc(CNc4ccccc4)cc3)cc2N1 | 1.74
Cc1cc(OCc2ccccc2)ccc1CNc1ccc2cncnc2c1 | 9.24
NCCc1nc2ccc(C(=O)Nc3ccc(S(=O)(=O)Nc4ccccc4)cc3)cc2[nH]1 | 79.3
O=C(Nc1cccc(OCc2ccccc2)c1)c1ccc2oc(=O)[nH]c2c1 | 12.4
O=C(Nc1ccc(CNc2ccccc2)cc1)c1ccc2oc(=O)[nH]c2c1 | 7.91
CC1Sc2ccc(C(=O)Nc3ccc(OCc4cccc(S(=O)(=O)F)c4)cc3)cc2NC1=O (stereo not shown) | 7.17
Clc1ccccc1COc1ccc(CNc2ccc3cncnc3c2)cc1 | 7.88
CN(Cc1ccc(NC(=O)c2ccc3oc(=O)[nH]c3c2)cc1)c1ccccc1 | 15.6
FC(F)(F)c1cc(CNc2ccc3cncnc3c2)ccc1OCc1ccccc1 | 4.89

Structure (SMILES) | Kd [µM]
CN1C(=O)CSc2ccc(C(=O)Nc3ccc(S(C)(=O)=O)c(Cl)c3)cc21 | 141
Cc1ccccc1COc1ccc(CNc2ccc3cncnc3c2)cc1 | 11.1
CN(Cc1ccc(NC(=O)c2ccc3c(c2)NC(=O)CS3)cc1)c1ccccc1 | 24.8
Cc1ccc(N(C)S(=O)(=O)c2ccc(NC(=O)c3ccc4c(c3)CCCS4)cc2)cc1 | 2.73
Cc1cc(Nc2cc(C(=O)Nc3ccc(S(=O)(=O)Nc4ccccc4)cc3)ccc2C)nc(N)n1 | 80.7
Clc1cc(CNc2ccc3cncnc3c2)ccc1OCc1ccccc1 | 4.01
Nc1ccccc1CC(=O)Nc1cccc(C(=O)Nc2ccc(CN3CCCC3)cc2)c1 | 15.4
Cc1ccccc1N(C)S(=O)(=O)c1ccc(NC(=O)c2ccc3c(c2)CCCS3)cc1 | 10.3
O=C(Nc1cccc(CNc2ccccc2)c1)c1ccc2oc(=O)[nH]c2c1 | 18.2
CC(=O)N1CCN(S(=O)(=O)c2ccc(NC(=O)c3ccc4snnc4c3)cc2)CC1 | 16.9
Cc1cc(C(=O)Nc2ccc(OCc3ccccc3)cc2)nc(NCCN)n1 | 122
FC(F)(F)c1cc(OCc2ccccc2)ccc1CNc1ccc2cncnc2c1 | 5.28
O=C(Nc1cccc(CN2CCCCC2)c1)c1ccc2c(c1)CCCS2 | 24
Clc1cccc(COc2ccc(CNc3ccc4cncnc4c3)cc2)c1 | 3.28
CN(Cc1ccc(NC(=O)c2ccc3c(c2)N(C)C(=O)CS3)cc1)c1ccccc1 | 8.1
CC1Sc2ccc(C(=O)Nc3cccc(OCc4ccc(OS(=O)(=O)F)cc4)c3)cc2NC1=O (stereo not shown) | 19.1
c1ccc(CNc2ccc(CNc3ccc4cncnc4c3)cc2)cc1 | 30.6
CC(=O)N1CCN(S(=O)(=O)c2ccc(NC(=O)c3ccc4c(c3)CCCS4)cc2)CC1 | 24.1
CN(Cc1ccc(NC(=O)c2ccc3nn[nH]c3c2)cc1)c1ccccc1 | 2.9
CC1Sc2ccc(C(=O)Nc3cccc(CNc4cccc(OS(=O)(=O)F)c4)c3)cc2NC1=O (stereo not shown) | 11.2
CC1Sc2ccc(C(=O)Nc3cccc(OCc4cccc(OS(=O)(=O)F)c4)c3)cc2NC1=O (stereo not shown) | 16.9
Cc1ccc(C(=O)Nc2ccc(S(=O)(=O)Nc3ccccc3)cc2)cc1NC(=O)CCc1c[nH]cn1 | 72.1
O=C(Nc1ccc(S(=O)(=O)Nc2ccccc2)cc1)c1ccc2nncn2c1 | 367
CC1Sc2ccc(C(=O)Nc3cccc(S(=O)(=O)F)c3)cc2NC1=O (stereo not shown) | 35.5

Structure (SMILES) | Kd [µM]
O=C(Nc1ccc(S(=O)(=O)N2CCCCC2)cc1)c1ccc2c(c1)N(Cc1ccccc1)C(=O)CS2 | 15.7
CC(=O)NCc1cccc(Nc2ccnc(Nc3cccc(S(=O)(=O)N4CCCC4)c3)n2)c1 | 38
Nc1cccc(Nc2ccnc(Nc3cccc(S(=O)(=O)N4CCCC4)c3)n2)c1 | 118
CN(Cc1ccc(NC(=O)c2ccc3c(c2)CCCS3)cc1)c1ccccc1 | 11.5
c1ncc2ccc(NCc3ccc(OCC4CCCCC4)cc3)cc2n1 | 8.28
CN(c1cccc(Cl)c1)S(=O)(=O)c1ccc(NC(=O)c2ccc3c(c2)CCCS3)cc1 | 14.2
CN(Cc1ccccc1)c1ccc(CNc2ccc3cccnc3c2)cc1 | 9.27
Cc1cnc(Nc2cccc(S(=O)(=O)N3CCCC3)c2)nc1Nc1cccc(N)c1 | 105
Cc1cc(C(=O)Nc2ccc(S(=O)(=O)Nc3ccccc3)cc2)nc(NC2CCC(N)CC2)n1 (stereo not shown) | 94.6
Cc1cccc(N(C)S(=O)(=O)c2ccc(NC(=O)c3ccc4c(c3)CCCS4)cc2)c1 | 4.55
CCCCN1C(=O)CSc2ccc(C(=O)Nc3ccc(S(=O)(=O)N4CCCCC4)cc3)cc21 | 25.2
CC(=O)N1CCN(S(=O)(=O)c2cccc(NC(=O)c3ccc4c(c3)CCCS4)c2)CC1 | 15.4
Cc1cc(C(=O)Nc2ccc(S(=O)(=O)Nc3ccccc3)cc2)nc(NCCN)n1 | 22.1
CN1C(=O)CSc2ccc(C(=O)Nc3ccc(S(C)(=O)=O)cc3)cc21 | 82.1
O=C(Nc1ccc(CNc2ccccc2)cc1)c1ccc2nncn2c1 | 46.1
O=C(Nc1ccc(S(=O)(=O)N2CCCCC2)cc1)c1ccc2c(c1)N(c1ccccc1)C(=O)CS2 | 6.67
CN(Cc1cccc(NC(=O)c2ccc3oc(=O)[nH]c3c2)c1)c1ccccc1 | 13.6
COc1cccc(NC(=O)Nc2cc(Nc3cccc(S(=O)(=O)N4CCCC4)c3)ncn2)c1 | 16.5
CC(=O)NCCNc1nc(C)cc(C(=O)Nc2ccc(S(=O)(=O)Nc3ccccc3)cc2)n1 | 89.6
CN1C(=O)CSc2ccc(C(=O)Nc3ccc(CN4CCCCC4)cc3)cc21 | 129
CC(=O)NCc1cccc(Nc2nc(Nc3cccc(S(=O)(=O)N4CCCC4)c3)ncc2C)c1 | 163
Cc1ccc(C(=O)Nc2ccc(S(=O)(=O)Nc3ccccc3)cc2)cc1NC(=O)Cc1cc(=O)[nH]c(=O)[nH]1 | 61.9
CN(Cc1cccc(NC(=O)c2ccc3snnc3c2)c1)c1ccccc1 | 38.8

system: Jeko-1 (SOX11+); assay: Cell viability assay (CellTiter-Blue resazurin reduction); type: cell-based; details: Homo sapiens, JeKo-1, 72 h, JeKo-1 cells, 0-40 μM
Protocol: Cell viability was determined by a fluorometric resazurin reduction method (CellTiter-Blue; Promega, Madison, Wis.) following the manufacturer's instructions. […] Cells were incubated for 72 hours. After incubation, 20 μl CellTiter-Blue Cell was added to each well and incubated for another 2 hours. […] The number of viable cells in each treated well was calculated, based on the linear least squares regression of the standard curve (OD vs. cell concentration). The viability of cells treated with compounds was normalized to the viability of cells treated with 0.2% Dimethyl sulfoxide (DMSO). Cell counts were confirmed with Trypan Blue Exclusion Assay on the Countess automated cell counter (Invitrogen) according to the manufacturer's specifications. The average and mean standard deviation were calculated from three separate experiments. IC50 values were calculated using the GraphPad Prism (version 4.00) based on a sigmoidal dose-response equation.

Structure (SMILES) | IC50 [µM]
Cc1cc(S(=O)(=O)Nc2ccccc2)ccc1NC(=O)c1ccc2c(c1)NC(=O)C(C)S2 (stereo not shown) | 20
O=C(Nc1ccc(S(=O)(=O)Nc2ccccc2)cc1)c1ccc2nn[nH]c2c1 | 12
CC1Sc2ccc(C(=O)Nc3ccc(S(=O)(=O)Nc4ccccc4F)cc3)cc2NC1=O (stereo not shown) | 15
C[C@H]1Sc2ccc(C(=O)Nc3ccc(S(=O)(=O)Nc4ccccc4)cc3)cc2NC1=O | 12.5
CC1Sc2ccc(C(=O)Nc3ccc(S(=O)(=O)Nc4ccccc4)cc3)cc2NC1=O (stereo not shown) [drawing 599] | 12.5
CC1Sc2ccc(C(=O)Nc3cccc(S(=O)(=O)Nc4cccc(C(F)(F)F)c4)c3)cc2NC1=O (stereo not shown) | 10
CC1Sc2ccc(C(=O)Nc3ccc(S(=O)(=O)Nc4ccccc4)cc3C(F)(F)F)cc2NC1=O (stereo not shown) | 5

same assay, conditions: Homo sapiens, JeKo-1, 72 h, JeKo-1 cells, 20 μM compound, normalized to 0.2% DMSO

Structure (SMILES) | viability at 20 µM [%]
Cc1cc(S(=O)(=O)Nc2ccccc2)ccc1NC(=O)c1ccc2c(c1)NC(=O)C(C)S2 (stereo not shown) | 51.1
O=C(Nc1ccc(S(=O)(=O)Nc2ccccc2)cc1)c1ccc2nn[nH]c2c1 | 5.75
CC1Sc2ccc(C(=O)Nc3ccc(S(=O)(=O)Nc4ccccc4F)cc3)cc2NC1=O (stereo not shown) | 21.2
CC1Sc2ccc(C(=O)Nc3cccc(OCc4ccccc4C(F)(F)F)c3)cc2NC1=O (stereo not shown) | 87.1
CC1Sc2ccc(C(=O)Nc3ccc(OCc4ccccc4)cc3)cc2NC1=O (stereo not shown) | 104
CC1Sc2ccc(C(=O)Nc3cccc(S(=O)(=O)Nc4cccc(C(F)(F)F)c4)c3)cc2NC1=O (stereo not shown) | 16.8
CC1Sc2ccc(C(=O)Nc3ccc(S(=O)(=O)Nc4ccccc4)cc3C(F)(F)F)cc2NC1=O (stereo not shown) | 1.38
CC1Sc2ccc(C(=O)Nc3ccc(OCc4ccccc4C(F)(F)F)cc3)cc2NC1=O (stereo not shown) | 106

same assay, conditions: JeKo-1 cells, 20 μM compound, 72 hours, normalized to 0.2% DMSO; 20 µM

Structure (SMILES) | Jeko-1 Viability at 20 μM (%)
O=C1CSc2ccc(C(=O)Nc3ccc(S(=O)(=O)Nc4ccccc4)cc3)cc2N1 [drawing 503] | 2.73
O=C1CSc2ccc(C(=O)Nc3ccc(S(=O)(=O)Nc4ccccc4)cc3)cc2N1 [drawing 513] | 79.21
CC1Sc2ccc(C(=O)Nc3ccc(S(=O)(=O)Nc4ccccc4)cc3)cc2NC1=O (stereo not shown) [drawing 599] | 6.36

same assay, conditions: JeKo-1 cells, 72 hours, 0-40 μM

Structure (SMILES) | IC50 [µM]
O=C1CSc2ccc(C(=O)Nc3ccc(S(=O)(=O)Nc4ccccc4)cc3)cc2N1 [drawing 503] | 7.5
O=C1CSc2ccc(C(=O)Nc3ccc(S(=O)(=O)Nc4ccccc4)cc3)cc2N1 [drawing 513] | > 20
